Measurements published in patent publication US7259177B2, “Cycloalkylmethoxy-substituted acetic acid derivatives, processes for their preparation and their use as pharmaceuticals” (Sanofi-Aventis Deutschland GmbH, priority 2003, dated 2007).
Where a name gives a salt, the structure may show the parent alone.

Target: T1, human PPARα (Homo sapiens, UniProt Q07869)
T1 construct: amino acids S167-Y468; expressed in transfected cells; host or cells: HEK (human embryo kidney) cells, stably transfected with pcDNA3 carrying the fusion construct
T1 sequence (Q07869 167-468): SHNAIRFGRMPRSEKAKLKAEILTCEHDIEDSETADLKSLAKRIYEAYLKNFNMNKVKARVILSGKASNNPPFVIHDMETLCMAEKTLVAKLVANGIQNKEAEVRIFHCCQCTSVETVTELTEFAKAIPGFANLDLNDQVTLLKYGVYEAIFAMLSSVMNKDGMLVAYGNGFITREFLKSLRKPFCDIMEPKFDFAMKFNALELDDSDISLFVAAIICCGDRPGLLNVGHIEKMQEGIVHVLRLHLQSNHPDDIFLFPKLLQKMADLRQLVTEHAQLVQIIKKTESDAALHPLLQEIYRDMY
Assay: Cellular PPARalpha assay (stably transfected HEK PPARalpha reporter cell line, luciferase)
Type: cell-based
Conditions: 24 h incubation, luciferase readout
Experimental: (A) Determination of EC50 Values of PPAR Agonists in the Cellular PPARalpha Assay
The potency of substances that bind to human PPARα and activate in an agonistic manner is analyzed using a stably transfected HEK cell line (HEK=human embryo kidney) which is referred to here as PPARalpha reporter cell line. It contains two genetic elements, a luciferase reporter element (pΔM-GAL4-Luc-Zeo) and a PPARalpha fusion protein (GR-GAL4-humanPPARα-LBD) that mediates expression of the luciferase reporter element depending on a PPARalpha ligand. The stably and constitutively expressed fusion protein GR-GAL4-humanPPARalpha-LBD binds in the cell nucleus of the PPARalpha reporter cell line via the GAL4 protein portion to the GAL4 DNA binding motifs 5′-upstream of the luciferase reporter element which is integrated in the genome of the cell line. There is only little expression of the luciferase reporter gene without addition of a PPARalpha ligand if fatty acid-depleted fetal calf serum (cs-FCS) is used in the assay. PPARα ligands bind and activate the PPARα fusion protein and thereby bring about expression of the luciferase reporter gene. The luciferase which is formed can be detected by means of chemiluminescence via an appropriate substrate.
The PPARalpha reporter cell line was prepared in 2 stages. Firstly, the luciferase reporter element was constructed and stably transfected into HEK cells. For this purpose, five binding sites of the yeast transcription factor GAL4 (each 5′-CGGAGTACTGTCCTCCGAG-3′ (SEQ ID NO:1)) were cloned in 5′-upstream of a 68 bp-long minimal MMTV promoter (Genbank Accession # V01175). The minimal MMTV promoter section contains a CCAAT box and a TATA element in order to enable efficient transcription by RNA polymerase II. The cloning and sequencing of the GAL4-MMTV construct took place in analogy to the description of Sambrook J. et. al. (Molecular cloning, Cold Spring Harbor Laboratory Press, 1989). Then the complete Photinus pyralis gene (Genbank Accession # M15077) was cloned in 3′-downstream of the GAL4-MMTV element. After sequencing, the luceriferase reporter element consisting of five GAL4 binding sites, MMTV promoter and luciferase gene was recloned into a plasmid which confers zeocin resistance in order to obtain the plasmid pΔM-GAL4-Luc-Zeo. This vector was transfected into HEK cells in accordance with the statements in Ausubel, F. M. et al. (Current protocols in molecular biology, Vol.1-3, John Wiley & Sons, Inc., 1995). […] In a second step, the PPARalpha fusion protein (GR-GAL4-humanPPARalpha-LBD) was introduced into the stable cell clone described. For this purpose, initially the cDNA coding for the N-terminal 76 amino acids of the glucocorticoid receptor (Genbank Accession # P04150) was linked to the cDNA section coding for amino acids 1-147 of the yeast transcription factor GAL4 (Genbank Accession # P04386). The cDNA of the ligand-binding domain of the human PPARalpha receptor (amino acids S167-Y468; Genbank Accession # S74349) was cloned in at the 3′-end of this GR-GAL4 construct. The fusion construct prepared in this way (GR-GAL4-humanPPARalpha-LBD) was recloned into the plasmid pcDNA3 (from Invitrogen) in order to enable constitutive expression therein by the cytomegalovirus promoter. This plasmid was linearized with a restriction endonuclease and stably transfected into the previously described cell clone containing the luciferase reporter element. The finished PPARalpha reporter cell line that contains a luciferase reporter element and constitutively expresses the PPARalpha fusion protein (GR-GAL4-human PPARalpha-LBD) was isolated by selection with zeocin (0.5 mg/ml) and G418 (0.5 mg/ml).
The activity of PPARalpha agonists is determined in a 3-day assay described below: […]

In order of rising EC50:
1. Cc1ccc(-c2nc(CO[C@@H]3CCC[C@H](CSCC(=O)O)C3)c(C)o2)cc1 (racemic) [Example 22]  0.07 nM
2. CCC(SCC1CCCC(OCc2nc(-c3ccc(C)cc3)oc2C)C1)C(=O)O (stereo not drawn) [Example 24, 2-[cis-3-(5-methyl-2-p-tolyloxazol-4-ylmethoxy)cyclohexylmethylsulfanyl]butyric acid]  0.3 nM
3. CCc1oc(-c2ccc3ccccc3c2)nc1COC[C@@H]1CCC[C@H](COC(C)(C)C(=O)O)C1 (racemic) [Example 64, 2-[cis-3-(5-ethyl-2-(2-naphthyl)oxazol-4-yl-methoxymethyl)cyclohexylmethoxy]-2-methylpropionic acid]  0.4 nM
4. COc1cccc(-c2nc(CO[C@@H]3CCC[C@H](CCC(C(=O)O)C(C)C)C3)c(C)o2)c1 (relative stereo) [Example 74, 2-(2-{cis-3-[2-(3-methoxyphenyl)-5-methyloxazol-4-ylmethoxy]cyclohexyl}ethyl)-3-methylbutyric acid]  0.4 nM
5. Cc1ccc(-c2nc(CO[C@H]3CCC[C@@H](COC(C)(C)C(=O)O)C3)c(C)o2)cc1 [Example 8a, 2-[(1R,3S)-3-(5-Methyl-2-p-tolyloxazol-4-ylmethoxy)cyclohexylmethoxy]-2-methylpropionic Acid]  1.8 nM
6. Cc1oc(-c2ccc(C(F)(F)F)cc2)nc1COC1CCCC(COC(C)(C)C(=O)O)C1 [Example 16, 2-methyl-2-{(1R,3S)-cis-3-[5-methyl-2-(4-trifluoromethyl-phenyl)oxazol-4-ylmethoxy]cyclohexylmethoxy}propionic acid]  4 nM
7. Cc1ccc(-c2nc(CO[C@@H]3CCC[C@H](COC4(C(=O)O)CCCC4)C3)c(C)o2)cc1 (relative stereo) [Example 9, 1-[cis-3-(5-Methyl-2-p-tolyloxazol-4-ylmethoxy)cyclohexylmethoxy]cyclo-pentanecarboxylic acid]  4.3 nM
8. CCCCCC(C(=O)O)S(=O)(=O)CC1CCCC(OCc2nc(-c3ccc(C)cc3)oc2C)C1 (stereo not drawn) [Example 38, 2-[cis-3-(5-methyl-2-p-tolyloxazol-4-ylmethoxy)cyclohexylmethylsulfonyl]heptanoic acid]  8.5 nM
9. Cc1ccc(-c2nc(COC3CCCC(CN(Cc4ccccc4)[C@H](C(=O)O)C(C)C)C3)c(C)o2)cc1 (mixture of isomers) [Example 51, (S)-2-{benzyl-[cis-3-(5-methyl-2-p-tolyloxazol-4-ylmethoxy)-cyclohexylmethyl]amino}-3-methylbutyric acid trifluoroacetic acid salt]  12 nM
10. CCCCCC(C(=O)O)[S+]([O-])CC1CCCC(OCc2nc(-c3ccc(C)cc3)oc2C)C1 (stereo not drawn) [Example 33, 2-[cis-3-(5-methyl-2-p-tolyloxazol-4-ylmethoxy)cyclohexylmethylsulfinyl]heptanoic acid]  17 nM
11. Cc1ccc(-c2nc(CO[C@@H]3CCC[C@H](COC(Cc4ccccc4)C(=O)O)C3)c(C)o2)cc1 (relative stereo) [Example 4, 2-[cis-3-(5-methyl-2-p-tolyloxazol-4-ylmethoxy)cyclohexyl-methoxy]-3-phenylpropionic acid]  25 nM
12. Cc1ccc(-c2nc(COC3CCCC(CN[C@H](C(=O)O)C(C)C)C3)c(C)o2)cc1 (mixture of isomers) [Example 42, (S)-3-Methyl-2{[cis-3-(5-methyl-2-p-tolyloxazol-4-ylmethoxy)cyclohexyl-methyl]amino}butyric acid]  79 nM
